Columns and labels:
Assay type in all cases: in vivo
[1] = system: vetch aphid (Megoura viciae); experiment: control of vetch aphid through contact or systemic means, broad bean leaf disks in 24-well microtiter plates; conditions: sprayed on leaf disks, 5 days, mortality and fecundity
Description: (§1) The analysis of synergism or antagonism between the mixtures or compositions was determined using Colbys equation.
For evaluating control of vetch aphid (Megoura viciae) through contact or systemic means the test unit consisted of 24-well-microtiter plates containing broad bean leaf disks.
The compounds or mixtures were formulated using a solution containing 75% water and 25% DMSO. Different concentrations of formulated compounds or mixtures were sprayed onto the leaf disks at 2.5 μl, using a custom built micro atomizer, at two replications.
(§2) For experimental mixtures in these tests identical volumes of both mixing partners at the desired concentrations respectively, were mixed together.
After application, the leaf disks were air-dried and 5-8 adult aphids placed on the leaf disks inside the microtiter plate wells. The aphids were then allowed to suck on the treated leaf disks and incubated at 23+1° C., 50+5% RH for 5 days. Aphid mortality and fecundity was then visually assessed.
In this test the compound 1-2, and N-(3′,4′-dichloro-5-fluorobiphenyl-2-yl)-3-difluoro-methyl-1-methylpyrazole-4-carboxamide (compound 2.1), and 5-chloro-7-(4-methyl-piperidin-1-yl)-6-(2,4,6-trifluorophenyl)-[1,2,4]triazolo[1,5-a]pyrimidine (compound 2.2) were used.

[2] = system: green peach aphid (Myzus persicae); experiment: control of green peach aphid through systemic means, artificial diet under membrane in 96-well microtiter plates; conditions: pipetted into aphid diet, 3 days, mortality and fecundity
Description: as §1
For evaluating control of green peach aphid (Myzus persicae) through systemic means the test unit consisted of 96-well-microtiter plates containing liquid artificial diet under an artificial membrane.
The compounds or mixtures were formulated using a solution containing 75% water and 25% DMSO. Different concentrations of formulated compounds or mixtures were pipetted into the aphid diet, using a custom built pipetter, at two replications.
as §2
After application, 5 to 8 adult aphids were placed on the artificial membrane inside the microtiter plate wells. The aphids were then allowed to suck on the treated aphid diet and incubated at 23+1° C., 50+5% RH for 3 days. Aphid mortality and fecundity was then visually assessed.
In this test the compound 1-2, and 5-chloro-7-(4-methylpiperidin-1-yl)-6-(2,4,6-trifluoro-phenyl)-[1,2,4]triazolo[1,5-a]pyrimidine (compound 2.2) and N-[2-(1,1,2,3,3,3-hexa-fluoropropoxy)-phenyl]-3-difluoromethyl-1-methyl-1H-pyrazole-4-carboxamide (compound 3.1) were used.

[3] = system: boll weevil (Anthonomus grandis); experiment: control of boll weevil, insect diet with eggs in 24-well microtiter plates; conditions: sprayed onto insect diet, 5 days, egg and larval mortality
Description: as §1
For evaluating control of boll weevil (Anthonomus grandis) the test unit consisted of 24-well-microtiter plates containing an insect diet and 20-30 A. grandis eggs.
The compounds or mixtures were formulated using a solution containing 75% water and 25% DMSO. Different concentrations of formulated compounds or mixtures were sprayed onto the insect diet at 20 μl, using a custom built micro atomizer, at two replications.
as §2
After application, microtiter plates were incubated at 23+1° C., 50+5% RH for 5 days. Egg and larval mortality was then visually assessed.
In this test the compound I-2 and N-[2-(1,1,2,3,3,3-hexafluoropropoxy)-phenyl]-3-difluoromethyl-1-methyl-1H-pyrazole-4-carboxamide (compound 3.1), and N-(3′,4′,5′-trifluorobiphenyl-2-yl)-1-methyl-3-difluoromethyl-1H-pyrazole-4-carboxamide (compound 3.2) were used.

Cn1cc(C(=O)Nc2ccc(F)cc2-c2ccc(Cl)c(Cl)c2)c(C(F)F)n1 [2.1, N-(3′,4′-dichloro-5-fluorobiphenyl-2-yl)-3-difluoro-methyl-1-methylpyrazole-4-carboxamide]
Average Control % ([1]; 1000 ppm): 0%

CC1CCN(c2c(-c3c(F)cc(F)cc3F)c(Cl)nc3ncnn23)CC1 [2.2, 5-chloro-7-(4-methyl-piperidin-1-yl)-6-(2,4,6-trifluorophenyl)-[1,2,4]triazolo[1,5-a]pyrimidine]
Average Control % ([2]; 8 ppm): 0% | Average Control % ([1]; 40 ppm): 0%

Cn1cc(C(=O)Nc2ccccc2OC(F)(F)C(F)C(F)(F)F)c(C(F)F)n1 (stereo not shown) [3.1, N-[2-(1,1,2,3,3,3-hexafluoropropoxy)-phenyl]-3-difluoromethyl-1-methyl-1H-pyrazole-4-carboxamide]
Average Control % ([2]; 1000 ppm): 0% | Average Control % ([3]; 40 ppm): 0%

Cn1cc(C(=O)Nc2ccccc2-c2cc(F)c(F)c(F)c2)c(C(F)F)n1 [3.2, N-(3′,4′,5′-trifluorobiphenyl-2-yl)-1-methyl-3-difluoromethyl-1H-pyrazole-4-carboxamide]
Average Control % ([3]; 200 ppm): 50%

CNC(=O)c1cc(C#N)cc(C)c1NC(=O)c1cc(Br)nn1-c1ncccc1Cl [I-2]
Average Control % ([2]; 0.5 ppm): 0% | Average Control % ([1]; 0.5 ppm): 0% | Average Control % ([1]; 2.5 ppm): 0% | Average Control % ([3]; 0.5 ppm): 0%

Reference: patent US8420569B2, “Pesticidal mixtures” (BASF SE, priority 2006, dated 2013)
